Consider 1 molecule from patent US7795236B2, “Purine nucleoside derivative modified in 8-position and medical use thereof” (Kissei Pharmaceutical Co., Ltd., priority 2005, dated 2010).

Test [1] in a line: Effects of CNT inhibitor on plasma uric acid level (purine load test in rats). Type of test: in vivo. As to conditions: Male SD-IGS rats, oxonic acid 100 mg/kg s.c., purine mix 50 mg/kg and test compound 50 mg/kg orally, blood after 1 hour; control group = 100%. As to the method:
Male SD-IGS rats (5 weeks old) which were fasted overnight, were subcutaneously treated with oxonic acid (Aldrich; 100 mg/kg), and after 1 hour, purine mix (Adenosine: Inosine: Guanosine=1:1:1 (Adenosine (Sigma), Inosine (WAKO), Guanosine (ICN); 50 mg/kg) and test compounds (50 mg/kg) were orally administrated simultaneously. A control group was treated with oxonic acid and the purine mix, and a group administrated only oxonic acid represented endogenous plasma uric acid value. After 1 hour, blood was collected from the abdominal aorta under ether anesthesia, and the plasma was collected with Venoject II vacuum blood collecting tube (Terumo, VP-FH052). According to the method described in Journal of Chromatography B, Vol. 744 (2000), pp. 129-138, plasma uric acid level was measured by using HPLC method mentioned below. The difference between plasmauric acid value in each study group and endogenous plasma uric acid value was calculated on the basis of 100% in the control group.
Theophylline (10 μg) as an internal standard substance was added to 0.1 mL of plasma collected with the above method, and then the samples were deproteinized with 1 mL of methanol. After the samples were centrifuged, the methanol layers were evaporated to dryness under a stream of nitrogen. […] Plasma uric acid concentration was determined by HPLC method according to the condition described below. […]

Another test concerns the target T1, human CNT2 (Homo sapiens, UniProt O43868).
T1 construct: expressed in transfected cells; host or cells: COS-7 cells (RIKEN CELL BANK RCB0539), transient lipofection of a pCI-neo plasmid
T1 sequence (O43868 1-658 P22L/S45C/I160M): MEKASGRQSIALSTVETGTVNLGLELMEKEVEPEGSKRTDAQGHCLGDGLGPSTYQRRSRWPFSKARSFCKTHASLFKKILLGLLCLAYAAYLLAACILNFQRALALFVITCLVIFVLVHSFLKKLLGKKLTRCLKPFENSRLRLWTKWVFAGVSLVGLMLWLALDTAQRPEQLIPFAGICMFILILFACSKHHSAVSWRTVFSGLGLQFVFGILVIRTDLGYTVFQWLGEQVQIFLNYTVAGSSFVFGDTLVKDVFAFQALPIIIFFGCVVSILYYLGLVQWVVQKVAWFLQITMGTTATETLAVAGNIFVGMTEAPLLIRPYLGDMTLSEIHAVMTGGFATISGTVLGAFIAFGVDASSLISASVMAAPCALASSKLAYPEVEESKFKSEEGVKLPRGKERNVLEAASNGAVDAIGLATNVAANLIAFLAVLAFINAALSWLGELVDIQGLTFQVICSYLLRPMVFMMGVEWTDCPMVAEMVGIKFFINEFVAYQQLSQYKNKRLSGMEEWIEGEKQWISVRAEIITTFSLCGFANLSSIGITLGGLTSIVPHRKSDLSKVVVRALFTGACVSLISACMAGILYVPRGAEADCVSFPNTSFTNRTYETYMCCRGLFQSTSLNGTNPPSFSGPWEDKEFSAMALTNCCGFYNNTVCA
Briefly: Inhibitory activity against uptake of adenosine through human CNT2. Type of test: cell-based. As to conditions: 14C-labeled adenosine 10 μM, COS-7 cells transiently expressing human CNT2, 30 minutes at 37° C. The method, then:
Expression plasmid of human CNT2 was transfected into COS-7 cells (RIKEN CELL BANK RCB0539) by lipofection method. LIPOFECTAMINE 2000 (Invitrogen) was used as a lipofection reagent. COS-7 cells were diluted in D-MEM (Invitrogen) containing 10% fetal calf serum (Sanko Junyaku) at 5×10^5/1 mL, and seeded into collagen-coated 96-well plates (IWAKI) at 100 μL/well and cultured at 37° C. for 2 hours with 5% CO2 condition. For each well, 0.6 μL of LIPOFECTAMINE 2000 (Invitrogen) was diluted in 25 μL of OPTI-MEM (Invitrogen), and incubated for 7 minutes at room temperature (hereinafter referred to as Lipo 2000-OPTI). […]
An Uptake buffer was prepared by addition of a mixture of non-radioisotope labeled (Sigma) and ^14C-labeled (Amersham Biosciences) adenosine at the final concentration of 10 μM into a buffer, pH 7.4, containing 140 mM sodium chloride, 2 mM potassium chloride, 1 mM calcium chloride, 1 mM magnesium chloride, 10 mM HEPES 2-[4-(2-hydroxyethyl)-1-piperazinyl]ethane sulfonic acid, 5 mM tris(hydroxy-methyl)aminomethane and 5 mM glucose. […] After mixing with 150 μL of MicroScint-40 (Perkin Elmer), radioactivity was measured by means of scintillation counter (Perkin Elmer). One hundred % was set to the difference between the uptake in the control group and the basal uptake, and the uptake of adenosine at each test compound concentration was calculated. […]

For `Nc1ncnc2c1nc(NCc1ccc(-c3ccccc3)c(OCCCCO)c1)n2[C@@H]1O[C@H](CO)[C@@H](O)[C@H]1O` [Example 82], the “Percentage of increment of plasma uric acid level (%)” value in test [1] is listed as 44.1 (p < 0.05) %. Besides, on human CNT2, the IC50 (in general, the concentration needed to halve the response being measured) worked out at 297 nM.
